Experimental findings from patent US8399208B2, “Method and kit for the measurement of neutrophil cell activation” (Universite de Liege, priority 2004, dated 2013) are described below.

Experiment [1] has as its system activated equine neutrophils. The experiment is described as follows: Chemiluminescence response (lucigenin) of PMA-activated equine neutrophils. The experiment is classed as cell-based, horse. As to conditions: for Inhibition percentage on chemiluminescence response of activated neutrophils: 10^-5 M, neutrophils activated with 8×10^-7 M PMA, lucigenin. On the procedure: (§1) Neutrophils isolated from citrated blood of healthy horses were counted, suspended in phosphate buffer saline (PBS) at pH 7.4 and incubated 10 min at 37° C. with curcumin or THC at the final concentration of 10^−4, 10^−5 or 10^−6 M. After incubation and centrifugation (1000×g, 10 min), the neutrophils were resuspended in PBS and either activated 30 min with 8×10^−7 M phorbol myristate acetate (PMA), with a simultaneous monitoring of the chemiluminescent response in presence of lucigenin (5×10^-8 M), or activated in the same conditions followed by centrifugation and MPO measurement in the supernatant. MPO, marker of neutrophil degranulation, was measured by a specific ELISA assay raised against equine MPO. The effect of polyphenols on MPO activity was tested by SIEFED (“Specific Immunological Extraction Followed by Enzymatic Detection”) method that allows the study of drug interaction with the enzyme without reaction medium interferences.

The subject of experiment [2] is activated equine neutrophils. Description: MPO release by PMA-activated neutrophils, MPO measured by ELISA in the supernatant. In kind it is cell-based, horse. As to conditions: for Inhibitory percentage, MPO assay by ELISA in the supernatant after neutrophils activation with PMA (MPO release): drug concentration 10^-5 M. On the procedure:
FIG. 16 represents the inhibitory effect of curcumin on MPO release by neutrophils incubated in PBS buffer with or without stimulation with phorbol myristate acetate (PMA) (Curcumin (Curcu) was dissolved in ethanol. MPO was measured by ELISA in the supernatant of activated neutrophils).
The ELISA developed for MPO (1) measurement is further referred to as a MYELO-ELISA. Rabbit IgG, the primary antibody (2), is immobilized (coated) in excess (3 μg/ml) onto microtitration wells (3) (Cliniplate EB, Labsystem). Standard or test antigen (equine MPO (1)) is incubated overnight with the primary antibody (2) at 4° C. After washing (0.9% NaCl solution containing 0.1% tween 20), the immobilized antibody-antigen complex is incubated (2 h, 37° C.) with an excess (5 μg/ml) of guinea pig IgG, the secondary antibody (4). After washing, a third antibody (5) produced against guinea pig IgG is added. This third IgG (5) (goat IgG) is labelled with alkaline phosphatase (6) and recognizes the “sandwich” complex “primary antibody-MPO-secondary antibody”. After washing, phosphatase activity is detected by incubation (30 min, 37° C., in the darkness) with a paranitrophenyl phosphate solution (phosphatase substrate, Sigma). The reaction is stopped with NaOH and the absorbance (405 nm) is measured with a Multiscan Ascent apparatus (Labsystem) (7). All the volumes added into the wells comprise 100 μl, except for washing (300 μl) and for the substrate solution (200 μl). Controls (blank) and dilutions of the standard MPO and samples were established with dilution buffer [PBS (20 mM phosphate, 137 mM NaCl and 2.7 mM KCl pH 7.4) to which 5 g/L bovine serum albumin and 0.1% tween 20 was added]. The same ELISA technique was developed also for monoclonal antibodies as primary antibody.
as §1
On the technique in general: In an ELISA, binding on a coated surface is turned into a signal by an enzyme label.

In experiment [3] the test system is equine MPO. Description: MPO activity by SIEFED (specific immunological extraction followed by enzymatic detection). The experiment is classed as biochemical, horse. The following applies: for Effect on MPO activity (in words): SIEFED, polyphenol incubated with MPO, then capture, washing, enzymatic detection. On the procedure:
FIG. 17 represents the inhibitory effect of curcumin on MPO activity. Concentration of MPO used: 9 ng/ml. The incubation time of curcumin with MPO before assay by SIEFED was 30 min. (The most concentrated curcumin solution was prepared in ethanol (175 mM) and dilutions of this concentrated solution were performed with PBS buffer).
As for the ELISA test, the primary antibody, that captures MPO, is rabbit IgG (3 μg/ml). Standard MPO or unknown sample is incubated 2 h at 37° C. After washing, the peroxidase activity of MPO is detected by adding 100 μl of a 10 μM H2O2 solution and 40 μM of Amplex® Red (10-acetyl-3,7-dihydroxyphenoxazine; Molecular Probes) in phosphate buffer (50 mM, pH 7.5). After incubation in the darkness (30 min, 37° C.), the fluorescence is read at 590 nm with a Fluoroskan Ascent apparatus (Labsystems). The volumes of the primary antibody and the sample put in the wells, are 200 μl. Controls (blank) and dilutions of the samples are established with dilution buffer.
as §1
The SIEFED was applied to study the effects of two natural polyphenols (curcumin and resveratrol) on MPO activity.

As to `COc1cc(/C=C/C(=O)CC(=O)/C=C/c2ccc(O)c(OC)c2)ccc1O` [Curcumin], the “Effect on the chemiluminescence response of activated neutrophils (in words)” value in experiment [1] (10^-4, 10^-5 or 10^-6 M) is “dose dependent inhibitory effects”. For the same molecule, the “Inhibition percentage on chemiluminescence response of activated neutrophils” value in experiment [1] came out at 70%. Also, in experiment [2] (10^-4, 10^-5 or 10^-6 M), the “Effect on the MPO release by activated neutrophils (in words)” value is reported as “dose dependent inhibitory effects”. The “Inhibitory percentage, MPO assay by ELISA in the supernatant after neutrophils activation with PMA” value was found to be 83.5% in experiment [2] (drug concentration 10^-4 M) and 0% in experiment [2] (drug concentration 10^-6 M). The “Inhibitory percentage, MPO assay by ELISA in the supernatant after neutrophils activation with PMA (MPO release)” value in experiment [2] was determined as 43.6%; in experiment [2] (listed as curcumin) it was 44%. Besides, the results for the “Effect on MPO activity (in words)” value in experiment [3] and in experiment [3] (listed as curcumin) were “dose dependent inhibitory effects” and “direct dose dependent inhibitory effect”, respectively. The “Inhibitory percentage, MPO activity (SIEFED)” value in experiment [3] (drug concentration 10^-4 M) turned out to be 96.2%; in experiment [3] (drug concentration 10^-5 M), 60.4%; in experiment [3] (drug concentration 10^-5 M, listed as curcumin) it was 60%; in experiment [3] (drug concentration 10^-6 M), 21.1%.

`Oc1ccc(C=Cc2cc(O)cc(O)c2)cc1` [resveratrol]: the “Effect on MPO activity (in words)” value in experiment [3] is listed as “direct dose dependent inhibitory effect”.

For the molecule `COc1cc(CCC(=O)CC(=O)CCc2ccc(O)c(OC)c2)ccc1O` [tetrahydrocurcumin], the “Inhibition percentage on chemiluminescence response of activated neutrophils” value in experiment [1] worked out at 12%. Also, the “Inhibitory percentage, MPO assay by ELISA in the supernatant after neutrophils activation with PMA” value is given as 41% in experiment [2] (drug concentration 10^-4 M) and 17% in experiment [2] (drug concentration 10^-6 M). Also, the “Inhibitory percentage, MPO assay by ELISA in the supernatant after neutrophils activation with PMA (MPO release)” value in experiment [2] was determined as 18%.
